According to patent US10618903B2, “Heteroaryl substituted aminopyridine compounds” (BRISTOL-MYERS SQUIBB COMPANY, priority 2015, dated 2020):

Legend:
Caco Permeability Assay = type: in vitro ADME; conditions: human, Caco-2, Caco-2 cells, 3 μM compound
IRAK4 = IRAK4 (Homo sapiens (Human), UniProt Q9NWZ3); test: IRAK4 Inhibition Assay; type: biochemical; conditions: ATP 500 μM; IRAK4 0.6 nM
Summary of the method: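 Readout: electrophoretic (LabChip) separation of fluorescent peptide substrate from phosphorylated product after EDTA quench. Reactions ran 60 min at room temperature with 0.6 nM IRAK4, 1.5 μM peptide and 500 μM ATP; inhibition referenced to no-enzyme (100%) and vehicle (0%) controls.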

[1] = test system: IL-6 levels in human whole blood stimulated with a TLR2 agonist; test: IRAK4 Whole Blood Assay (lipoteichoic acid/TLR2-stimulated IL-6); type: cell-based; conditions: Homo sapiens, lipoteichoic acid 10 μg/mL, IL-6 readout
Summary of the method: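 IL-6 was quantified by cytometric bead assay in supernatants of human blood (ACD-A) stimulated for 5 h with lipoteichoic acid at 10 μg/mL final. Compound exposure preceded stimulation for 60 min at 37 °C, 5% CO2.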

Sequence of IRAK4 (Q9NWZ3 whole entry): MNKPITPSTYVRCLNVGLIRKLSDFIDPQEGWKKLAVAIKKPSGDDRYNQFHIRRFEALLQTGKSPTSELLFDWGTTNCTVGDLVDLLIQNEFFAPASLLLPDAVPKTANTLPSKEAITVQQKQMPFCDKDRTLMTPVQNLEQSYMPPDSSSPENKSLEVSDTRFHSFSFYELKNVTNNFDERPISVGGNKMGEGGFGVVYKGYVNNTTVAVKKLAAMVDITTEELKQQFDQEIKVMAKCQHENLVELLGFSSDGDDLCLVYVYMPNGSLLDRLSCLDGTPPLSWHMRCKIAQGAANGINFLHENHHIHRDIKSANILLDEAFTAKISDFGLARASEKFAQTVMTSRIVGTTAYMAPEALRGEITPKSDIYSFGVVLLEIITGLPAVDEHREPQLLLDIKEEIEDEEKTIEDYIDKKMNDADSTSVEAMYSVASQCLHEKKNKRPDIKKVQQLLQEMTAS

SMILES	Papp at 2 h, 3 µM (Caco Permeability Assay) [×10⁻⁶ cm/s]	IC50 (IRAK4) [nM]	EC50 [1] [nM]
CC(C)(O)[C@H](F)CNC(=O)c1cnc(-c2cnn3cc(Cl)cnc23)cc1N[C@@H]1COC[C@H]1F [Example 44, 6-(6-chloropyrazolo[1,5-a]pyrimidin-3-yl)-N—((R)-2-fluoro-3-hydroxy-3-methylbutyl)-4-(((3R,4S)-4-fluorotetrahydrofuran-3-yl)amino)nicotinamide]	5.3	7	2730
CC(C)(F)Cn1ccc(Nc2cc(-c3cnn4cc(Cl)cnc34)ncc2C(=O)NC[C@@H](F)C(C)(C)O)n1 [Example 229, (R)-6-(6-chloropyrazolo[1,5-a]pyrimidin-3-yl)-4-((1-(2-fluoro-2-methylpropyl)-1H-pyrazol-3-yl)amino)-N-(2-fluoro-3-hydroxy-3-methylbutyl)nicotinamide]	11.3	9	580
CC(C)OC1CC(Nc2cc(-c3cnn4cc(Cl)cnc34)ncc2C(=O)NC[C@@H](F)C(C)(C)O)CC1(F)F (single isomer, unassigned) [Example 15]	6.5	4	660
CC(C)(O)[C@H](F)CNC(=O)c1cnc(-c2cnn3cc(Cl)cnc23)cc1NC1CC(F)(F)C1 [Example 65, (R)-6-(6-chloropyrazolo[1,5-a]pyrimidin-3-yl)-4-((3,3-difluorocyclobutyl)amino)-N-(2-fluoro-3-hydroxy-3-methylbutyl)nicotinamide]	12.6	4	3470

The remaining lines, values ahead:

Papp at 2 h, 3 µM (Caco Permeability Assay) [×10⁻⁶ cm/s]	IC50 (IRAK4) [nM]	EC50 [1] [nM]	SMILES
4	2	170	CC(C)(F)Cn1cc(Nc2cc(-c3cnn4cc(Cl)cnc34)ncc2C(=O)NC[C@@H](F)C(C)(C)O)cn1 [Example 227, (R)-6-(6-chloropyrazolo[1,5-a]pyrimidin-3-yl)-4-((1-(2-fluoro-2-methylpropyl)-1H-pyrazol-4-yl)amino)-N-(2-fluoro-3-hydroxy-3-methylbutyl)nicotinamide]
4.2	8	230	CC(C)Nc1cc(-c2cnc3cc(C#N)cnn23)ncc1C(=O)NC[C@H](F)C(C)(C)O [Example 194, (S)-6-(7-cyanoimidazo[1,2-b]pyridazin-3-yl)-N-(2-fluoro-3-hydroxy-3-methylbutyl)-4-(isopropylamino)nicotinamide]
< 1.5	2	290	CC(C)(O)[C@H](F)CNC(=O)c1cnc(-c2cnc3cc(C#N)cnn23)cc1Nc1cnn(CCCF)c1 [Example 281, (R)-6-(7-cyanoimidazo[1,2-b]pyridazin-3-yl)-N-(2-fluoro-3-hydroxy-3-methylbutyl)-4-((1-(3-fluoropropyl)-1H-pyrazol-4-yl)amino)nicotinamide]
4.5	4	210	CC(C)(O)[C@H](F)CNC(=O)c1cnc(-c2cnc3cc(C#N)cnn23)cc1NCCC(F)(F)F [Example 205, (R)-6-(7-cyanoimidazo[1,2-b]pyridazin-3-yl)-N-(2-fluoro-3-hydroxy-3-methylbutyl)-4-((3,3,3-trifluoropropyl)amino)nicotinamide]
5.9	2	180	CC(C)(F)[C@H](F)CNC(=O)c1cnc(-c2cnc3cc(C#N)cnn23)cc1Nc1cnn(CC(F)F)c1 [Example 258, (R)-6-(7-cyanoimidazo[1,2-b]pyridazin-3-yl)-N-(2,3-difluoro-3-methylbutyl)-4-((1-(2,2-difluoroethyl)-1H-pyrazol-4-yl)amino)nicotinamide]
< 1.5	3	90	CC(C)(O)[C@H](F)CNC(=O)c1cnc(-c2cnc3cc(C#N)cnn23)cc1NC1COC1 [Example 147, (R)-6-(7-cyanoimidazo[1,2-b]pyridazin-3-yl)-N-(2-fluoro-3-hydroxy-3-methylbutyl)-4-(oxetan-3-ylamino) nicotinamide]
